Reference: patent US20080032939A1, “Iridoid-saccharide compound and method of using same” (Health Research, Inc., priority 2004, published 2008)

Legend:
[1] = Preliminary screening of toxicity in treated mice; assay type: in vivo; settings: mice treated with compound 3
Procedure: (§1) On day 9, the drug administration was stopped and tumors were allowed to grow until they reached the size of approximately 350 mm^3 in volume. The drug injection was resumed (150 mg/kg/mouse) daily for another 7 days.

colo-26 tumors = assay: In vivo efficacy in mice bearing colo-26 tumors
Procedure: (§2) All the plant products isolated from the bark of Plumeria bicolor were insoluble in water and were dissolved in 1% Tween 80 in 5% dextrose solution. Among these analogs, plumeiride 3 produced good cytotoxicity producing a lethal dose 60% (LD60) with 200 μM, and an LD20 with 400 μM C-17 in colo-26 tumor cells. […] Plumieride 3 was then evaluated for in vivo efficacy in mice (6 mice/group) bearing colo-26 tumors at variable concentrations. […] This response was doubled to 24 days when the dose was increased to 100 mg/kg/mouse (FIG. 3).
as §1

colo-26 tumor cells = assay: In vitro cytotoxicity in Colo-26 tumor cells; assay type: cell-based
Procedure: Vehicle: 1% Tween 80 in 5% dextrose solution.
as §2

[2] = colo-26 tumor cells, vehicle 1% Tween 80 in 5% dextrose

For COC(=O)C1=CO[C@@H](O[C@@H]2O[C@H](CO)[C@@H](O)[C@H](O)[C@H]2O)[C@H]2[C@@H]1C=C[C@@]21C=C([C@H](C)O)C(=O)O1 [compound 3, plumieride], the “visible toxicity, body weight, daily habits” value [1] was “no visible toxicity as well as a change in body weight or daily habits”, the “tumor volume after injections were re-initiated” value (colo-26 tumors; 150 mg/kg/mouse daily for another 7 days, resumed at tumor size approximately 350 mm^3) was “regressed to almost half the size” and the tumor inhibition (colo-26 tumors; 150 mg/kg/mouse, as long as the drug was injected (until day 9)) was “complete tumor inhibition”. The “time with no increase in tumor volume” value (colo-26 tumors; dose 100 mg/kg/mouse, mice bearing colo-26 tumors) was 24 days, the “time with no increase in tumor volume” value (colo-26 tumors; injected daily with 50 mg/kg/mouse, mice bearing colo-26 tumors) was 12 days and the “tumor growth delay versus untreated control mice” value (colo-26 tumors; mice bearing colo-26 tumors, variable concentrations) was “significant tumor growth delay”. For the same compound, the LD20 (colo-26 tumor cells; [2]) was 400 µM, the “lethal dose 60% (LD60)” value (colo-26 tumor cells; [2]) was 200 µM and the “relative effectiveness among the components isolated from the bark” value (colo-26 tumor cells; compared with triterpenoids 1, 2) was “most effective”.
